Numbers after ± are expanded uncertainties.
Experiment: xn = mol fraction of the nth substance listed
Conditions: Liquid, Vibrating tube method

C=CC(C)(O)CCC=C(C)C (stereo not given) [3,7-dimethyl-1,6-octadien-3-ol] + CCCO
mass density [kg/m3]
Conditions	x2 = 0	x2 = 0.107	x2 = 0.206	x2 = 0.3066	x2 = 0.4064	x2 = 0.501	x2 = 0.6034	x2 = 0.7055	x2 = 0.7985	x2 = 0.898
313.15 K, 100 kPa	844.5 ± 1.1	842.1 ± 1.1	840.1 ± 1.1	837.3 ± 1	834.1 ± 1	830.5 ± 1	825.6 ± 1	819.1 ± 1	811.6 ± 1	801.2 ± 1
313.15 K, 5000 kPa	848.2 ± 1.1	845.8 ± 1.1	843.8 ± 1.1	841.1 ± 1.1	837.9 ± 1	834.4 ± 1	829.5 ± 1	823.1 ± 1	815.6 ± 1	805.3 ± 1
313.15 K, 10000 kPa	851.6 ± 1.1	849.3 ± 1.1	847.3 ± 1.1	844.6 ± 1.1	841.5 ± 1	838 ± 1	833.2 ± 1	826.8 ± 1	819.4 ± 1	809.2 ± 1
313.15 K, 15000 kPa	855 ± 1.2	852.8 ± 1.1	850.8 ± 1.1	848.1 ± 1.1	845.1 ± 1.1	841.5 ± 1	836.7 ± 1	830.4 ± 1	823.2 ± 1	813.1 ± 1
313.15 K, 20000 kPa	858.4 ± 1.2	856.1 ± 1.1	854.1 ± 1.1	851.5 ± 1.1	848.4 ± 1.1	844.9 ± 1.1	840.2 ± 1	833.9 ± 1	826.7 ± 1	816.7 ± 1
328.15 K, 100 kPa	831.7 ± 1.1	829.4 ± 1.1	827.3 ± 1.1	824.5 ± 1	821.3 ± 1	817.7 ± 1	812.8 ± 1	806.3 ± 1	799 ± 1	788.7 ± 1
328.15 K, 5000 kPa	835.6 ± 1.1	833.3 ± 1.1	831.2 ± 1.1	828.5 ± 1.1	825.3 ± 1	821.8 ± 1	816.9 ± 1	810.5 ± 1	803.3 ± 1	793.1 ± 1
328.15 K, 10000 kPa	839.5 ± 1.1	837.2 ± 1.1	835.2 ± 1.1	832.5 ± 1.1	829.3 ± 1	825.8 ± 1	821 ± 1	814.7 ± 1	807.5 ± 1	797.5 ± 1
328.15 K, 15000 kPa	843.1 ± 1.2	840.9 ± 1.1	838.8 ± 1.1	836.2 ± 1.1	833 ± 1.1	829.5 ± 1	824.8 ± 1	818.5 ± 1	811.4 ± 1	801.5 ± 1
328.15 K, 20000 kPa	846.7 ± 1.2	844.4 ± 1.1	842.4 ± 1.1	839.8 ± 1.1	836.7 ± 1.1	833.2 ± 1.1	828.5 ± 1	822.3 ± 1	815.2 ± 1	805.3 ± 1

Source: the NIST ThermoML archive (doi:10.1021/je100581m)
